98 compounds from ChEMBL document CHEMBL3507680, “University of Dundee, Gates Library screen for HepG2 cell viability” can be followed below.

The nature of this data set: Human HepG2 cell viability assay in 384 well format. The class given is toxicity, cell-based. Also noted: dose 125 nL, time 70.5 hour; cytotoxicity at 70.5 h: concentration not given beside the values. As to conditions: HepG2 cells, read-out: Inhibition.
In the case of `COC(=O)c1cc(NS(=O)(=O)c2cn(C)cn2)c(F)cc1F`, the cytotoxicity at 70.5 h is -2.67%.

Turning to `CCS(=O)(=O)N1CCC2(CC1)c1ncc(-c3cccnc3)n1CCN2C`, the cytotoxicity at 70.5 h is -5.3%.

As to `Cc1cc(-c2cnc(NC3CC3)nc2-c2ccc(C)o2)on1`, the cytotoxicity at 70.5 h is -9.8%.

In the case of `CCS(=O)(=O)N1CCC2(CC1)CCn1c(-c3cnn(C)c3)cnc12`, the cytotoxicity at 70.5 h is -13%.

Regarding `COc1ccccc1OCc1cc(C(=O)N2C[C@@H](C)O[C@@H](C)C2)n[nH]1`, the cytotoxicity at 70.5 h is -11.2%.

Consider `O=C(NC[C@@]1(COc2cnccn2)C[C@@H](O)[C@@H](O)C1)C1CCCC1`, for which the cytotoxicity at 70.5 h was found to be 10.3%.

In the case of `Cc1cc(C)c(CNC(=O)C(C)Oc2ccccc2C#N)c(=O)[nH]1` (stereo not drawn), the cytotoxicity at 70.5 h was -13.5%.

For `Cc1nnsc1C(=O)NCc1nn(C2CCCC2)c2c1CCCC2`, the cytotoxicity at 70.5 h is -5.38%.

With `COc1cc(NC2CCS(=O)(=O)C2)ncn1` (stereo not drawn), the cytotoxicity at 70.5 h is -17.8%.

Turning to `Cn1nc(CN2CCCC2)c2c1CN(C(=O)Nc1cccc(F)c1)CC2`, the cytotoxicity at 70.5 h is -7.05%.

Consider `COCc1cc(N(C)Cc2cc(C(C)(C)C)n[nH]2)ncn1`, for which the cytotoxicity at 70.5 h was -7.91%.

For the compound `CCC[C@@H]1CN(Cc2nnc(-c3cccnc3)o2)C[C@H]1NC(C)=O`, the cytotoxicity at 70.5 h was -7.21%.

As to `Cc1nccc(N2C[C@@H](CN3CCCC3)[C@@H](CO)C2)n1`, the cytotoxicity at 70.5 h was -6.17%.

Take `O=S(=O)(CCSc1nccn1C1CC1)c1ccccc1`: the cytotoxicity at 70.5 h is -5.9%.

Consider `CCn1cc(C(=O)N2C[C@H]3C[C@H](Oc4ccccc4)C[C@H]3C2)cn1`, for which the cytotoxicity at 70.5 h is -0.374%.

With `CS(=O)(=O)c1ccc(CNC[C@H]2COCc3nc4cccnc4n32)cc1`, the cytotoxicity at 70.5 h was -1.94%.

On to `CCc1nc(CN(C)Cc2nnc(-c3cccs3)o2)cs1`, for which the cytotoxicity at 70.5 h was -3.41%.

`COc1ccc(CN(C)[C@@H]2CN(C(=O)c3ccccc3)C[C@H]2O)cc1`: the cytotoxicity at 70.5 h is -2.29%.

In the case of `Cc1cc(S(=O)(=O)N2CCCN3CCCC3C2)ccc1F` (stereo not drawn), the cytotoxicity at 70.5 h was -9.81%.

Turning to `Cc1noc(C(C)N2CCN(CCOCC(F)(F)F)CC2)n1` (stereo not drawn), the cytotoxicity at 70.5 h amounted to 27.9%.

For the compound `Cc1cc(C)c(C(=O)N(CCO)Cc2ccccc2F)c(=O)[nH]1`, the cytotoxicity at 70.5 h is -8.86%.

Turning to `Cn1nc2c(cc1=O)CN(Cc1nc(-c3ccoc3)no1)CC2`, the cytotoxicity at 70.5 h was -2.1%.

Turning to `CN(Cc1cccnc1)C(=O)NC1CCN(Cc2ccccn2)CC1`, the cytotoxicity at 70.5 h turned out to be 0.886%.

With `Cc1noc(C)c1CN1CCCC2(CCN(C(=O)CC3CC3)C2)C1` (stereo not drawn), the cytotoxicity at 70.5 h was determined as 41.6%.

As to `Cc1nc(CN2CCCC(NCc3cccc(C(N)=O)c3)C2)no1` (stereo not drawn), the cytotoxicity at 70.5 h was -3.45%.

`Oc1nc(C2CC2)nc2c1nnn2C1CCN(Cc2ccoc2)CC1`: the cytotoxicity at 70.5 h is -6.55%.

For `CNC(=O)N1CC[C@H]2N(C)CC[C@@]2(C(=O)Nc2ccccc2)CC1`, the cytotoxicity at 70.5 h is -4.01%.

On to `COc1cccc(-c2cnc3n2CCC32CCN(C(C)=O)CC2)c1`, for which the cytotoxicity at 70.5 h was -3.5%.

On to `O=C(NCc1csc2ccccc12)NCC1(O)CCSC1` (stereo not drawn), for which the cytotoxicity at 70.5 h was -2.26%.

`O=C(O)c1nnn(Cc2cccc(C(F)(F)F)c2)c1-c1cccnc1`: the cytotoxicity at 70.5 h is -30.6%.

Consider `CCOc1ccc(SCCNS(=O)(=O)CC)cc1`, for which the cytotoxicity at 70.5 h is -11.3%.

In the case of `COc1cccc(C2CC(=O)Nc3nc(N4CCOCC4)sc32)c1OC` (stereo not drawn), the cytotoxicity at 70.5 h was -8.01%.

As for `COc1ccc(CNC2CCN(CCc3ccncc3)CC2)cc1O`, the cytotoxicity at 70.5 h is -6.38%.

`COCCN1CCc2ncnc(NC3CC3)c2CC1`: the cytotoxicity at 70.5 h was -2.68%.

As to `Cc1ccsc1C(=O)NCc1ccnc(C2CCCOC2)n1` (stereo not drawn), the cytotoxicity at 70.5 h was 13.6%.

Regarding `COc1ccc(C2CC(=O)NCc3nc4ccccn4c32)cn1` (stereo not drawn), the cytotoxicity at 70.5 h was -1.02%.

Turning to `CC(OCC1CC1)C(=O)N1CCCN(Cc2nccn2C(C)C)CC1` (stereo not drawn), the cytotoxicity at 70.5 h was -5.25%.

As for `Cc1ccc(CC(=O)Nc2cc(C(C)C)n[nH]2)cn1`, the cytotoxicity at 70.5 h was found to be 24.6%.

For `COCC(=O)N1CCC2(C1)c1ccccc1S(=O)(=O)N2CCC(C)C` (stereo not drawn), the cytotoxicity at 70.5 h was -5.31%.

For the compound `CCOc1cc(CNC(=O)c2cnn(CC)c2C(F)(F)F)ccn1`, the cytotoxicity at 70.5 h is -12.6%.

For `Cc1nc2n(n1)CC(NCc1nc(-c3cccs3)no1)CC2` (stereo not drawn), the cytotoxicity at 70.5 h worked out at 0.591%.

As to `CC(=O)N1CC(c2ccnc(Nc3ccc(C)cn3)n2)C1`, the cytotoxicity at 70.5 h was -4.62%.

`Cc1cc(OCC(=O)NC(C)c2ccc(N3CCOCC3)cc2)no1` (stereo not drawn): the cytotoxicity at 70.5 h was -3.83%.

With `COCc1ccc(CN[C@H]2C[C@@H](Cc3cc(CCO)on3)C2(C)C)o1`, the cytotoxicity at 70.5 h was -1.61%.

Consider `CC(C(=O)Nc1ccccc1F)S(C)(=O)=O` (stereo not drawn), for which the cytotoxicity at 70.5 h turned out to be 2.07%.

In the case of `CCC(CO)N(C/C(C)=C/c1ccco1)Cc1ccsc1` (stereo not drawn), the cytotoxicity at 70.5 h was 3.15%.

Take `CS(=O)(=O)NCCCNc1ccc(C(F)(F)F)cc1C#N`: the cytotoxicity at 70.5 h was -3.55%.

As for `COc1ccccc1-c1cccc(C2CCCN(C3CCOCC3)C2)n1` (stereo not drawn), the cytotoxicity at 70.5 h was 22.7%.

Regarding `CCS(=O)(=O)N1CC(c2nc(-c3ccsc3)no2)C1`, the cytotoxicity at 70.5 h was -3.37%.

Turning to `O=S(=O)(N1CCOCC1)N1CCOC(CCCc2ccccc2)C1` (stereo not drawn), the cytotoxicity at 70.5 h was -11.2%.

For `CCC(O)CN1CCN(C(=O)c2sccc2OC)CC1` (stereo not drawn), the cytotoxicity at 70.5 h came to 0.647%.

`CNC(=O)NC(C)c1c(F)cccc1Cl` (stereo not drawn): the cytotoxicity at 70.5 h is -107%.

As to `Cc1csc(CCNC(=O)c2ccc(N(C)C)c(F)c2)n1`, the cytotoxicity at 70.5 h was determined as 13.6%.

Consider `Cc1ocnc1C(=O)N1CCN(C(=O)CC(C)C)[C@@H]2CS(=O)(=O)C[C@@H]21`, for which the cytotoxicity at 70.5 h amounted to 31.4%.

Consider `N#Cc1cccc(CN2CCN(C(=O)C3CCC3)[C@@H]3CS(=O)(=O)C[C@@H]32)c1`, for which the cytotoxicity at 70.5 h was -4.15%.

With `O=C1NCC[C@]12CN(Cc1ccco1)C[C@H]2c1ccccc1`, the cytotoxicity at 70.5 h worked out at 1.63%.

As for `CCC(Nc1nc(C(C)C)nc2c1cnn2C)c1ccncc1` (stereo not drawn), the cytotoxicity at 70.5 h is -7.7%.

For `O=C(c1ccc[nH]1)N1CCn2cc(Cn3cncn3)nc2C1`, the cytotoxicity at 70.5 h was -9.02%.

In the case of `CC(C)(C)c1n[nH]cc1CNC1CCC(C(F)(F)F)CC1` (stereo not drawn), the cytotoxicity at 70.5 h is -0.127%.

Turning to `CC(C)N(CCCNC(=O)C1CC(=O)N(C)C1)S(C)(=O)=O` (stereo not drawn), the cytotoxicity at 70.5 h was 33.7%.

On to `O=C(c1ncn2c1CNS(=O)(=O)c1ccccc1-2)N1CCCCCC1`, for which the cytotoxicity at 70.5 h stood at 0.0876%.

Consider `Cc1ccc(CN2C[C@@H]3[C@@H](C(=O)NCC(C)C)CCS(=O)(=O)[C@@H]3C2)cc1`, for which the cytotoxicity at 70.5 h was -1.42%.

As for `COc1ccc(C(C)=O)c(OCC(=O)NC(C)c2ccc(F)cc2)c1` (stereo not drawn), the cytotoxicity at 70.5 h was -14.9%.

Consider `Cc1ccc(N2Cc3c(CN(C)C)nn(C)c3C2)nn1`, for which the cytotoxicity at 70.5 h was -14.2%.

Turning to `CCc1ccsc1C(=O)N1CCN(C(=O)c2ccc(C)o2)CC1`, the cytotoxicity at 70.5 h was -5.92%.

As to `CCS(=O)(=O)N1CCCn2nnc(Cn3cccc3)c2C1`, the cytotoxicity at 70.5 h is -5.99%.

Consider `CCOC(=O)COc1ccc(C(C)=O)c(O)c1`, for which the cytotoxicity at 70.5 h amounted to 28.9%.

Consider `CCN(CC)[C@@H]1CN(C(=O)c2ccc(C#N)cc2)[C@@H]2CCCO[C@H]12`, for which the cytotoxicity at 70.5 h was -4.73%.

Turning to `O=C(CCN1CCCC1C1CCCCC1)N1CCc2sccc2C1` (stereo not drawn), the cytotoxicity at 70.5 h came out at 2.92%.

In the case of `CC(C)CCN1CCNC(=O)C1CC(=O)N1CCc2sccc2C1` (stereo not drawn), the cytotoxicity at 70.5 h was -7.67%.

As for `CCc1nnc2n1CCN(Cc1cc(Cl)c3c(c1)OCCO3)C2`, the cytotoxicity at 70.5 h was determined as 21.4%.

As for `Cc1nc(C(=O)N2CCCC2c2cncc(CN3CCCC3)n2)co1` (stereo not drawn), the cytotoxicity at 70.5 h was -1.27%.

Take `CCc1cc(CN(C)C(=O)c2cc(=O)[nH]c(=O)[nH]2)on1`: the cytotoxicity at 70.5 h is -9.27%.

As to `Fc1cccc(N2CCCC3(CN(Cc4ccco4)CCO3)C2)c1` (stereo not drawn), the cytotoxicity at 70.5 h was -11.7%.

Turning to `COCCC(=O)N1C[C@@H](O)[C@H](N2CCN(c3ccccc3)CC2)C1`, the cytotoxicity at 70.5 h was -2.33%.

For the compound `Cn1cccc1C(=O)Nc1cc(F)ccc1OCC1CCCO1` (stereo not drawn), the cytotoxicity at 70.5 h is -17.4%.

As to `Cc1cc(O)ncc1NS(=O)(=O)c1cccc(F)c1F`, the cytotoxicity at 70.5 h is -19.8%.

On to `Cc1cnn(CC2CCCN2CCCc2nc3ccccc3o2)c1` (stereo not drawn), for which the cytotoxicity at 70.5 h was -16.1%.

On to `O=C(NCCNc1ncccn1)N1CCCC(C(F)(F)F)C1` (stereo not drawn), for which the cytotoxicity at 70.5 h was -9.23%.

Turning to `CCN(Cc1ccccc1C)S(C)(=O)=O`, the cytotoxicity at 70.5 h is -3.77%.

For `O=C1COC2(CCN(Cc3ccco3)CC2)CN1CCn1cccn1`, the cytotoxicity at 70.5 h was -6.38%.

In the case of `O=C(CN1C(=O)c2ccccc2C1=O)N1CCOC2(CCOCC2)C1`, the cytotoxicity at 70.5 h is 3.73%.

Take `COc1cc(C(=O)NS(=O)(=O)c2cncc(Br)c2)cc(OC)c1C`: the cytotoxicity at 70.5 h was -8.02%.

For `Cn1ccnc1CN1CCC(F)(F)C2(CCN(c3cccnc3)C2)C1` (stereo not drawn), the cytotoxicity at 70.5 h is -8.56%.

`CN(Cc1n[nH]c2c1CCCC2)C(=O)c1cccc(CCC(C)(C)O)c1`: the cytotoxicity at 70.5 h is -4.47%.

In the case of `COCCC1(CNC(=O)Nc2ccc(-n3nccn3)cc2)CCC1`, the cytotoxicity at 70.5 h was 13.3%.

For the compound `CC(C)(C(=O)N1CCC(C(N)=O)C1)c1ccccc1F` (stereo not drawn), the cytotoxicity at 70.5 h is -2.99%.

`O=C(c1ccc(-n2cc(Br)cn2)cc1)N1CCN(c2cnccn2)CC1`: the cytotoxicity at 70.5 h is -10%.

As for `CN(CCN1CCCCCC1)c1nccc(N2CCC(O)C2)n1` (stereo not drawn), the cytotoxicity at 70.5 h was -6.64%.

For the compound `c1cncc(OCc2noc3c2CN(Cc2ccsc2)CC3)c1`, the cytotoxicity at 70.5 h was 15.9%.

Regarding `COC1(CNC(=O)c2cccc(C#N)c2)CCSC1` (stereo not drawn), the cytotoxicity at 70.5 h stood at 42.8%.

On to `CCc1nnc(C(C)N2CCN(CCC(C)(C)C)CC2)o1` (stereo not drawn), for which the cytotoxicity at 70.5 h was -7.09%.

Regarding `O=C(O)c1ccnc(SCC(F)(F)F)c1`, the cytotoxicity at 70.5 h was -10.8%.

As for `Cc1cc(C)cc(NC(=O)CN2CCCC(n3cncn3)C2)c1` (stereo not drawn), the cytotoxicity at 70.5 h was -3.52%.

Regarding `O=C(c1ccc(-n2cncn2)cc1)N1CCN(c2cnccn2)CC1`, the cytotoxicity at 70.5 h was -9.5%.

Regarding `Cc1cn([C@H]2CCNC[C@]2(C)O)c(=O)[nH]c1=O`, the cytotoxicity at 70.5 h stood at 4.8%.

In the case of `O=C(NC(C(=O)Nc1cc[nH]n1)c1ccccc1)C1CCC1` (stereo not drawn), the cytotoxicity at 70.5 h is -0.966%.

On to `Cc1cccc(OC2CCN(c3nccnc3C#N)CC2)n1`, for which the cytotoxicity at 70.5 h worked out at 4.46%.
